Assay results taken from patent US20240165226A1, “COMBINATION TREATMENT OF CD38-EXPRESSING TUMORS” (GENMAB A/S, priority 2006, published 2024).

Test system: Daudi-luc tumor cells
Assay: In vivo SCID-luciferase experiments
Design: species or system SCID mice
Excerpt: In this model tumor cells are transfected with firefly luciferase. Upon administration of luciferin (Molecular Probes, Leiden, The Netherlands) to the mice the labeled cells can be detected in vivo by bioluminescent imaging using a highly sensitive CCD camera, cf. Wetterwald et al., American Journal of Pathology 160(3), 1143-1153 (2002).
Daudi cells were transfected with gWIZ luciferase from Gene Therapy Systems (San Diego, CA) and cultured in RPMI with 10% FCS, Pen/Strep, Sodium Pyruvate and 1 μg/ml puromycin (Sigma). Cells were analysed for luciferase expression (expressed in RLU/1×10^5 cells) in a luminometer and for CD38 expression by FACS. 2.5×10^6 luciferase-transfected Daudi cells/mouse were injected i.v. into SCID mice. Mice were treated with -003, -005, isotype control antibody (HuMab-KLH) or rituximab (anti-CD20 antibody). Antibodies were injected intraperitoneally. Four treatment settings were used (see Table 4). In the preventive setting, antibody (100 μg/mouse) and cells were administered simultaneously. In therapeutic setting I, antibody (300 μg/mouse) was administered 7 days after administration of cells. In therapeutic setting II, antibody (10 μg/mouse) was administered 14 days after administration of cells. In therapeutic setting III, antibody (100 μg/mouse) was administered 7 days after administration of cells. For imaging, mice were anesthetized by i.p. injection of a mixture of ketamine/xylazine/atropine. Synthetic D-Luciferin (sodium salt, Molecular Probes) was given i.p. at a dose of 25 mg/ml. Mice were then placed in a light tight box and after 3 min, imaging was started using a VersArray 1300B liquid nitrogen cooled CCD detector (Roper Scientific). Photons emitted from the luciferase were counted over an exposure period of 5 min. Under illumination black and white images were made for reference. MetaVue software (Universal Imaging Corp) was used for data collection and image analysis. Statistical significance of differences between groups was established using one-way analysis of variance with a Newman-Keuls post test using GraphPad PRISM version 3.02 (Graphpad Software Inc).

Q: How did the “inhibition of growth of tumor cells” value (preventive setting, 100 μg/mouse, day 0, i.p.) turn out when “rituximab [anti-CD20 antibody, reference compound]” was run?
A: inhibition observed

Q: And the “inhibition of growth of tumor cells” value (therapeutic setting I, 300 μg/mouse, day 7, i.p.)?
A: inhibition observed
